Values of other authors as cited in patent publication US20250161269A1 (Celmatix Inc., priority 2022, published 2025).
Read-outs that look alike come from different tables or passages of the source.

How the values were obtained:
[1] = biological target: 5-HT2B receptor (Homo sapiens, UniProt P41595); conditions: antagonist; cited from earlier work
[2] = test system: PCOS patients; conditions: PCOS patients or patients with metabolic disturbances; cited from earlier work
[3] = test system: PCOS animal models; conditions: cited from earlier work
[4] = test system: endometriosis lesion; conditions: animals; cited from earlier work
[5] = in vivo; cited from earlier work
[6] = test system: macrophages (RAW264.7 or primary cells); conditions: macrophages treated with LPS; cited from earlier work
[7] = test system: endometriosis patients; conditions: cited from earlier work
[8] = biological target: serum albumin (Homo sapiens, UniProt P02768); conditions: peripheral circulation; cited from earlier work
Sequence of serum albumin (P02768 25-609): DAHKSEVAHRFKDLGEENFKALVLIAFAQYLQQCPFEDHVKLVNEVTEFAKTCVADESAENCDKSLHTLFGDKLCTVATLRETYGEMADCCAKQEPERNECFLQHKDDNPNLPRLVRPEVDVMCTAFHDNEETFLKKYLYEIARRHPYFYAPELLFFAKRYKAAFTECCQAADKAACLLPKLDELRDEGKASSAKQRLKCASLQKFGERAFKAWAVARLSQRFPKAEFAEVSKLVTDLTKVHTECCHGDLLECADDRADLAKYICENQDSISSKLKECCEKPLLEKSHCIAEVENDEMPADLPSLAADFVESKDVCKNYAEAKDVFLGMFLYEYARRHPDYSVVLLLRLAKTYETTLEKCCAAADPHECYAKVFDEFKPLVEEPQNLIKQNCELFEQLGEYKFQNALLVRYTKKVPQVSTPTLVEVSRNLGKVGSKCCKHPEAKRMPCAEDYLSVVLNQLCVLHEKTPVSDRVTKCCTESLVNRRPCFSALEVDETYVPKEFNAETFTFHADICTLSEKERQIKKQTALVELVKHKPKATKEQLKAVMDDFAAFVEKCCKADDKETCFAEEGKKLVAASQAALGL

[9] = test system: chemotherapy tissue damage animal models; conditions: cited from earlier work
[10] = biological target: T1, MT2 (Homo sapiens, UniProt P49286); conditions: cited from earlier work
T1 sequence (P49286 1-362): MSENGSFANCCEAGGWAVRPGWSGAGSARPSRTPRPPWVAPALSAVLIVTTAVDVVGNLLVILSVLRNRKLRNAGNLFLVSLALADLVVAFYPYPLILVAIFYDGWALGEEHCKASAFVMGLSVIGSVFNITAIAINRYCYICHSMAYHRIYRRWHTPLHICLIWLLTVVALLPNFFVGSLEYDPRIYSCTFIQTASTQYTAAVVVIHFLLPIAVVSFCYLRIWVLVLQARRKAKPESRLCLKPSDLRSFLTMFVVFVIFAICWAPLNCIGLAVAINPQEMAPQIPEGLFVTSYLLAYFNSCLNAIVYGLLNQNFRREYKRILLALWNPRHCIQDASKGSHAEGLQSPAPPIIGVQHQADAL

[11] = biological target: T2, MT1 (Homo sapiens, UniProt P48039); conditions: cited from earlier work
T2 sequence (P48039 whole entry): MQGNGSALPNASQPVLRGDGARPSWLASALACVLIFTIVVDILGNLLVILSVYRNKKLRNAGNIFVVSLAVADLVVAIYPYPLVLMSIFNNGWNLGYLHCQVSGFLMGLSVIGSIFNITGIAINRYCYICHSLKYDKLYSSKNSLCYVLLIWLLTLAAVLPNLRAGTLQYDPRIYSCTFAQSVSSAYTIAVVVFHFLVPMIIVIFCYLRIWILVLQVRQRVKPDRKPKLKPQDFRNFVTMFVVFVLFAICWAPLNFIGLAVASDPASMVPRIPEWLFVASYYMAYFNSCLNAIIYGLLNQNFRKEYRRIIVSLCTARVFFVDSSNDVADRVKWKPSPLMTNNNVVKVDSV

[12] = biological target: T2, MT1; design: host or cells: CHO-K1 cells (as the earlier reading words it); conditions: CHO-K1 cells; cited from earlier work
[13] = biological target: T1, MT2; design: host or cells: CHO-K1 cells (as the earlier reading words it); conditions: CHO-K1 cells; cited from earlier work
[14] = biological target: T2, MT1; conditions: NIH-3T3 cells; cited from earlier work

Sequence of 5-HT2B receptor (P41595 whole entry): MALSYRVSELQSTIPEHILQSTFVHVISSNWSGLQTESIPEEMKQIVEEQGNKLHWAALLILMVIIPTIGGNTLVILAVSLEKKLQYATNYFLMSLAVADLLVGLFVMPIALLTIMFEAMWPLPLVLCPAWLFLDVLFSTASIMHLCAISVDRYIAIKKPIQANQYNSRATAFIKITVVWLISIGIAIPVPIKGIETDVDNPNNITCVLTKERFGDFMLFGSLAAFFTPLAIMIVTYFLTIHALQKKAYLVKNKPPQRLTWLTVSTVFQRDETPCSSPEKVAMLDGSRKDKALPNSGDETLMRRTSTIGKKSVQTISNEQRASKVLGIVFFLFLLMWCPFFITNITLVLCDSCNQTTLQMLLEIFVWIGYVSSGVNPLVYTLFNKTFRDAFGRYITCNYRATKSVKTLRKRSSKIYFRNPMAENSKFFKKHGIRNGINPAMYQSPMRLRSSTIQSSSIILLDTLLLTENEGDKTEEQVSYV

| SMILES | Ki [10] [pM] | Ki [11] [pM] | Ki [12] [pM] | Ki [13] [pM] | also measured |
| --- | --- | --- | --- | --- | --- |
| COc1ccc2cccc(CCNC(C)=O)c2c1 [Agomelatine] | – | – | – | – | Ki [1]: 660000 pM |
| COc1ccc2[nH]cc(CCNC(C)=O)c2c1 [Melatonin, N-acetyl-5-methoxytryptamine] | – | – | – | – | effect on hyperandrogenism, inflammation, ART outcome, and metabolic function [2]: beneficial effect; metabolic and reproductive traits [3]: improve metabolic and reproductive traits; endometriosis lesion regression [4]: promotes endometriosis lesion regression; half-life inside the body [5]: 20 to 40 min; LPS-induced expression of pro-inflammatory molecules (e.g. TNFα, IL1B, IL6, IL8) [6]: reduces their LPS-induced expression; effect on pelvic pain [7]: beneficial effect; bound to serum albumin [8]: approximately 70%; metabolic and reproductive traits [9]: mitigate and protect metabolic and reproductive traits |
| COc1ccc2[nH]cc(CCNC(=O)c3cc(=O)cco3)c2c1 [Piromelatine] | 34 | 22 | – | – | – |
| CCC(=O)NCC[C@@H]1CCc2ccc3c(c21)CCO3 [Ramelteon] | 110 | – | 118 | 115 | – |
| COc1cc2c(C(C)CNC(C)=O)c[nH]c2cc1Cl (stereo not drawn) [TIK-301, beta-methyl-6-chloromelatonin] | 42 | 81 | – | – | – |
| CCC(=O)NC[C@@H]1C[C@H]1c1cccc2c1CCO2 [Tasimelteon] | – | 300 | 350 | 170 | Ki [14]: 304 pM |
